Patent publication US10513521B2, “Compositions and methods for inhibiting BMP” (The Brigham and Women's Hospital, Inc., priority 2014, dated 2019)
Changes are numbered by the printed parent chain.

Experiments:
ALK2 [1] = biological target: T1, ALK2 (Mus musculus, UniProt P37172); assay: HTRF pSMAD1 cell-based ALK2 assay (C2C12 cells, BMP6 as agonist); conditions: cell-based assay, BMP6; read-out: Cell IC50 BMP6
T1 construct: The C2C12 cell line was selected for the measurement of ALK2 activity using BMP6 as the agonist; host or cells: C2C12
T1 sequence (P37172 21-509): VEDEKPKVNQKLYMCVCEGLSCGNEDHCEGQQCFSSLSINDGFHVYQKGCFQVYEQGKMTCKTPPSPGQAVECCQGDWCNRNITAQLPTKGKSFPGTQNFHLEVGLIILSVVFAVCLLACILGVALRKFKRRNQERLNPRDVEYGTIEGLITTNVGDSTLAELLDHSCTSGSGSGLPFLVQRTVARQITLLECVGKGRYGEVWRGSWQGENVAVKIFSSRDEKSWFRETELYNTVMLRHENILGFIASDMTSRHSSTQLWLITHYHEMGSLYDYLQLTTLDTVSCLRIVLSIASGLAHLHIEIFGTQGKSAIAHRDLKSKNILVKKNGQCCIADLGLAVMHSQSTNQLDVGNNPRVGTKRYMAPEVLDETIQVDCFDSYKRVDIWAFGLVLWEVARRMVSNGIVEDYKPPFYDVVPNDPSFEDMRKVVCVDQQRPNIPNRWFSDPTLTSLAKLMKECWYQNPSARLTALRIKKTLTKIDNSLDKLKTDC
Outline: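 Phospho-SMAD1 HTRF readout, detection incubated overnight at room temperature. Before that: starved cells in 0.1% FBS for 4 h, 30 min compound pretreatment, then 30 min agonist, BMP6 on C2C12 or BMP9 on BAOEC.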

ALK3 = ALK3 (Homo sapiens, UniProt P36894); assay: TR-FRET enzymatic ALK kinase assay, ALK3
Chain of ALK3 (P36894 24-532): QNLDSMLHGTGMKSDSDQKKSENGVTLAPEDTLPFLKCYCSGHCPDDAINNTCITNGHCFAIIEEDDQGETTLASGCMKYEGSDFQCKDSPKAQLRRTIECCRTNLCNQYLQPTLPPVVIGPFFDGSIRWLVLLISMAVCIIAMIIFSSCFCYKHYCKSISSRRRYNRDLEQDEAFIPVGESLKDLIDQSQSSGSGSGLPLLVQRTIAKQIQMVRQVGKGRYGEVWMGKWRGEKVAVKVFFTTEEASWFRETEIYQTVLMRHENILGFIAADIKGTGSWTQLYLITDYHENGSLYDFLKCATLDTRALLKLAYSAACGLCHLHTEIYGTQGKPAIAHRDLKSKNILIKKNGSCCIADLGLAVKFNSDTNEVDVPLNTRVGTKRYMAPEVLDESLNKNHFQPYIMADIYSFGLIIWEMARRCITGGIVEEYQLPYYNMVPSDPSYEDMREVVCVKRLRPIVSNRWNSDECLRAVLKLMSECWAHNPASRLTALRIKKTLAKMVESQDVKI
Procedure: (§1) Briefly, the ALKs enzymatic assay was initiated by dispense 2.5 μl enzyme in 1× kinase reaction buffer. The assay plate was then added with compounds followed by incubation at room temperature for 10 minutes. Then 2.5 μl/well substrate was added.

[2] = Cell-based assay, TGFb1 (Cell IC50)
ALK6 = ALK6 (Homo sapiens, UniProt O00238); assay: TR-FRET enzymatic ALK kinase assay, ALK6
Chain of ALK6 (O00238 14-502): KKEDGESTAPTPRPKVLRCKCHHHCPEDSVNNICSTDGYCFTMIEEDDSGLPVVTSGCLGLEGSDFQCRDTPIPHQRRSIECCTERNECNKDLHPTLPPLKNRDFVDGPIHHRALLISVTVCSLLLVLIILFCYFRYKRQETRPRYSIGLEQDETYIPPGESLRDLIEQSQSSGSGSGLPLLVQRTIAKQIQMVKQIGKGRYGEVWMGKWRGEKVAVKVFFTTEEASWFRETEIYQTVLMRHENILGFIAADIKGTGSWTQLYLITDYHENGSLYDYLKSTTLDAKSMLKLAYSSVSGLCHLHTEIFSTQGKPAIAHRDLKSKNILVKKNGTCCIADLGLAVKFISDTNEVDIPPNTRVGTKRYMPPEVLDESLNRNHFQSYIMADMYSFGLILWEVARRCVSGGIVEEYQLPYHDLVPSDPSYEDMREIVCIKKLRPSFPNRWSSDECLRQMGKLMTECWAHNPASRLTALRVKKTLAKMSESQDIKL
Procedure: as §1

ALK4 = biological target: T2, ALK4 (Homo sapiens, UniProt P36896); assay: TR-FRET enzymatic ALK kinase assay, ALK4
T2 sequence (P36896 24-505): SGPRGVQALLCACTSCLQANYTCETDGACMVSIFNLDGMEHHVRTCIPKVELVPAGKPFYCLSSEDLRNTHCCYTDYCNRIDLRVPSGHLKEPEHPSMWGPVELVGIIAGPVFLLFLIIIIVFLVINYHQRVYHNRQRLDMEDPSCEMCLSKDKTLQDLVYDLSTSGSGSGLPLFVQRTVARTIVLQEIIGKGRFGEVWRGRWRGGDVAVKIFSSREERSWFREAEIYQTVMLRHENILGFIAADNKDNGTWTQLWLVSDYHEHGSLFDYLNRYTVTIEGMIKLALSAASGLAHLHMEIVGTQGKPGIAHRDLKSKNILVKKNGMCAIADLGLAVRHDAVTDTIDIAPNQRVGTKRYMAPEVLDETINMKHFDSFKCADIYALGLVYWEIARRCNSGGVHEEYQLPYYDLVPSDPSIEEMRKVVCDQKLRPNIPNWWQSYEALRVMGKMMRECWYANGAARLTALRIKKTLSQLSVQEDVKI
Procedure: as §1

ALK2 [3] = biological target: T3, ALK2 (Homo sapiens, UniProt Q04771); assay: TR-FRET enzymatic ALK kinase assay, ALK2
T3 sequence (Q04771 21-509): T1 sequence (P37172 21-509) with V1M, Q10P, I121L, E162D, S310P
Procedure: as §1

ALK1 = ALK1 (Homo sapiens, UniProt P37023); assay: TR-FRET enzymatic ALK kinase assay, ALK1
Chain of ALK1 (P37023 22-503): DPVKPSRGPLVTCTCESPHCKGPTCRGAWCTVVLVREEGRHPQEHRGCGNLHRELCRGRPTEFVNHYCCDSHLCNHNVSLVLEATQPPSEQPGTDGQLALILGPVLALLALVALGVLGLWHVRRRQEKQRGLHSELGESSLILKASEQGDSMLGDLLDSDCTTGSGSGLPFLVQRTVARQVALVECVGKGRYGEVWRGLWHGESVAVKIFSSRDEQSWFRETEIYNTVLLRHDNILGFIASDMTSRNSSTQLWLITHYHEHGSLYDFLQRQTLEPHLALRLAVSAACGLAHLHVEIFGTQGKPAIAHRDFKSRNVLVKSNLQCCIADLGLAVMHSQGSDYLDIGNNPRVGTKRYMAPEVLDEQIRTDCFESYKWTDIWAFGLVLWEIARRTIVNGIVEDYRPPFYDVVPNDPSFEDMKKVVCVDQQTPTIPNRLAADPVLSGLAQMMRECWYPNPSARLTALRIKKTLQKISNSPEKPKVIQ
Procedure: as §1

ALK5 = biological target: T4, ALK5 (Homo sapiens, UniProt P36897); assay: TR-FRET enzymatic ALK kinase assay, ALK5
T4 sequence (P36897 34-503): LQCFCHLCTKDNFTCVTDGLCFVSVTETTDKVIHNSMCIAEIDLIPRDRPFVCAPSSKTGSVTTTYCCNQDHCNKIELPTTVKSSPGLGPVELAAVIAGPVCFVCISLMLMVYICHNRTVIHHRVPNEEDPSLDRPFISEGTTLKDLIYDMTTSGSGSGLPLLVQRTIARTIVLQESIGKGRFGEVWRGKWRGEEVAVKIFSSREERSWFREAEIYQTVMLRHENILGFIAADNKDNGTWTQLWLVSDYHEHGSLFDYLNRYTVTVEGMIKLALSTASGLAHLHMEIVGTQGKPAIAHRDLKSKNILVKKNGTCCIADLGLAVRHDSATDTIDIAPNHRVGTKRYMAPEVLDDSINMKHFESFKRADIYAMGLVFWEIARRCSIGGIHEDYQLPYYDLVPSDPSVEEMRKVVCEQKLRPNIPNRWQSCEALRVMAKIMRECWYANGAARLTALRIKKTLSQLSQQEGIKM
Procedure: Six ALK kinase enzyme assays were developed for determination of compound activities on ALK1, ALK2, ALK3, ALK4, ALK5 and ALK6.
as §1

Row | SMILES | IC50 (ALK2 [1]) | IC50 (ALK3) | IC50 [2] | IC50 (ALK6) | IC50 (ALK4) | IC50 (ALK2 [3]) | IC50 (ALK1) | IC50 (ALK5)
1 | CCNS(=O)(=O)c1cccc(-c2cnn3cc(-c4ccc(N5[C@H](C)CNC[C@@H]5C)cc4)cnc23)c1 [Compound 77, 3-(6-(4-((2R,6S)-2,6-dimethylpiperazin-1-yl)phenyl)pyrazolo[1,5-a]pyrimidin-3-yl)-N-ethylbenzenesulfonamide] | 28 nM | 2100 nM | 423 nM | > 10000 nM | 4300 nM | 31 nM | 110 nM | > 10000 nM
2 | C[C@@H]1CNC[C@H](C)N1c1ccc(-c2cnc3c(-c4ccc(-c5nn[nH]n5)c5ccccc45)cnn3c2)cc1 [Compound 26, 3-(4-(1H-tetrazol-5-yl)naphthalen-1-yl)-6-(4-((2R,6S)-2,6-dimethylpiperazin-1-yl)phenyl)pyrazolo[1,5-a]pyrimidine] | 2990 nM | 391 nM | 1860 nM | 1910 nM | 3040 nM | 13 nM | 48 nM | 6110 nM
3 | C[C@@H]1CNC[C@H](C)N1c1ccc(-c2cnc3c(-c4ccc(F)c(C#N)c4)cnn3c2)cc1 [Compound 84, 5-(6-(4-((2R,6S)-2,6-dimethylpiperazin-1-yl)phenyl)pyrazolo[1,5-a]pyrimidin-3-yl)-2-fluorobenzonitrile] | 2080 nM | > 10000 nM | 10000 nM | > 10000 nM | > 10000 nM | 120 nM | 860 nM | > 10000 nM
4 | CC(=O)c1cccc2c(-c3cnn4cc(-c5ccc(N6[C@H](C)CNC[C@@H]6C)cc5)cnc34)cccc12 [Compound 24, 1-(5-(6-(4-((2R,6S)-2,6-dimethylpiperazin-1-yl)phenyl)pyrazolo[1,5-a]pyrimidin-3-yl)naphthalen-1-yl)ethanone] | 333 nM | 59 nM | 580 nM | 300 nM | 1450 nM | 30 nM | 107 nM | 26900 nM
5 | CS(=O)(=O)c1cccc(-c2cnn3cc(-c4ccc(C5CCNCC5)cc4)cnc23)c1 [Compound 94, 3-(3-(methylsulfonyl)phenyl)-6-(4-(piperidin-4-yl)phenyl)pyrazolo[1,5-a]pyrimidine] | 430 nM | 6100 nM | 4400 nM | > 10000 nM | > 10000 nM | 53 nM | 220 nM | > 10000 nM
6 | CC(C)(CN1CCCCC1)Oc1ccc(-c2cnc3c(-c4ccc(C(N)=O)c5ccccc45)cnn3c2)cc1 [Compound 17, 4-(6-(4-((2-methyl-1-(piperidin-1-yl)propan-2-yl)oxy)phenyl)pyrazolo[1,5-a]pyrimidin-3-yl)-1-naphthamide] | 16 nM | 62 nM | 434 nM | 1240 nM | 2020 nM | 5 nM | 11 nM | 8580 nM
7 | CC(C)(O)c1cccc(-c2cnn3cc(-c4ccc(CCN5CCCCC5)cc4)cnc23)c1 [Compound 99, 2-(3-(6-(4-(2-(piperidin-1-yl)ethyl)phenyl)pyrazolo[1,5-a]pyrimidin-3-yl)phenyl)propan-2-ol] | 509 nM | 2200 nM | 46000 nM | > 10000 nM | > 10000 nM | 43 nM | 250 nM | > 10000 nM
8 | CC(O)c1cccc(-c2cnn3cc(-c4ccc(C5CCNCC5)cc4)cnc23)c1 (centres unmarked) [Compound 98, 1-(3-(6-(4-(piperidin-4-yl)phenyl)pyrazolo[1,5-a]pyrimidin-3-yl)phenyl)ethanol] | 668 nM | 3300 nM | 7000 nM | > 10000 nM | > 10000 nM | 72 nM | 310 nM | > 10000 nM

The remaining compounds from weak to strong by IC50 (ALK2 [1]), led by results:

Row | IC50 (ALK2 [1]) | IC50 (ALK3) | IC50 [2] | IC50 (ALK6) | IC50 (ALK4) | IC50 (ALK2 [3]) | IC50 (ALK1) | IC50 (ALK5) | SMILES
9 | 477 nM | 3300 nM | > 100000 nM | > 10000 nM | > 10000 nM | 39 nM | 120 nM | > 10000 nM | CC(C)(O)c1cccc(-c2cnn3cc(-c4ccc(C5CCNCC5)cc4)cnc23)c1 [Compound 100, 2-(3-(6-(4-(piperidin-4-yl)phenyl)pyrazolo[1,5-a]pyrimidin-3-yl)phenyl)propan-2-ol]
10 | 419 nM | 1500 nM | 57000 nM | > 10000 nM | > 10000 nM | 37 nM | 170 nM | > 10000 nM | CS(=O)(=O)c1cccc(-c2cnn3cc(-c4ccc(CCN5CCCCC5)cc4)cnc23)c1 [Compound 86, 3-(3-(methylsulfonyl)phenyl)-6-(4-(2-(piperidin-1-yl)ethyl)phenyl)pyrazolo[1,5-a]pyrimidine]
11 | 55 nM | 112 nM | 645 nM | 2060 nM | 2990 nM | 7 nM | 30 nM | 7020 nM | NC(=O)c1ccc(-c2cnn3cc(-c4ccc(N5C[C@@H]6C[C@H]5CN6)cc4)cnc23)c2ccccc12 [Compound 11, 4-(6-(4-((1 S,4S)-2,5-diazabicyclo[2.2.1]heptan-2-yl)phenyl)pyrazolo[1,5-a]pyrimidin-3-yl)-1-naphthamide]
12 | 44 nM | 1100 nM | 4440 nM | 9840 nM | 4780 nM | 94 nM | 574 nM | 151000 nM | C[C@@H]1CNC[C@H](C)N1c1ccc(-c2cnc3c(-c4ccc(C#N)c5ccccc45)cnn3c2)cc1 [Compound 19, 4-(6-(4-((2R,6S)-2,6-dimethylpiperazin-1-yl)phenyl)pyrazolo[1,5-a]pyrimidin-3-yl)-1-naphthonitrile]
13 | 21 nM | 30 nM | 764 nM | 105 nM | 2690 nM | 7 nM | 31 nM | 11200 nM | NC(=O)c1cccc2c(-c3cnn4cc(-c5ccc(N6CCNCC6)cc5)cnc34)cccc12 [Compound 6, 5-(6-(4-(piperazin-1-yl)phenyl)pyrazolo[1,5-a]pyrimidin-3-yl)-1-naphthamide]
